Laboratory results taken from patent publication US20230093099A1, “COMPOUNDS AND METHODS OF TREATING CANCERS” (CULLGEN (SHANGHAI), INC., priority 2019, published 2023).

system: RS4;11 cells; assay: Cell viability assay (CellTiter-Glo) in RS4;11 cells; type: cell-based; settings: Homo sapiens, 72 h; RS4;11 ALL cells treated for three days; read-out: cell viability inhibition IC50
Method in brief: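 Three-day compound treatment of RS4;11 ALL cells (5000/well, 3-fold dilution series of 8 or 12 points), with IC50 from a nonlinear least-squares fit to CellTiter-Glo viability data.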

IC50 [µM]	Structure (SMILES)
< 0.1	CS(=O)(=O)c1ccc(-c2cccc3nc(Nc4ccc(N5CCN(C(=O)CCCCCNc6ccc7c(c6)C(=O)N(C6CCC(=O)NC6=O)C7=O)CC5)cc4)nn23)cc1 (stereo not shown) [JA-198, 2-(2,6-dioxopiperidin-3-yl)-5-((6-(4-(4-((5-(4-(methylsulfonyl)phenyl)-[1,2,4]triazolo[1,5-a]pyridin-2-yl)amino)phenyl)piperazin-1-yl)-6-oxohexyl)amino)isoindoline-1,3-dione]
< 0.1	Cc1cnc(Nc2ccc(N3CCN(CC(=O)NCCCCCCNc4cccc5c4C(=O)N(C4CCC(=O)NC4=O)C5=O)CC3)cc2)nc1Nc1cccc(S(=O)(=O)NC(C)(C)C)c1 (stereo not shown) [JA-094, 2-(4-(4-((4-((3-(N-(tert-butyl)sulfamoyl)phenyl)amino)-5-methylpyrimidin-2-yl)amino)phenyl)piperazin-1-yl)-N-(6-((2-(2,6-dioxopiperidin-3-yl)-1,3-dioxoisoindolin-4-yl)amino)hexyl)acetamide]

same assay, conditions: Homo sapiens, 72 h; RS4;11 cells; cell viability, 3 days, CellTiter-Glo; read-out: IC50

IC50 [µM]	Structure (SMILES)
> 10	Cc1ncsc1-c1ccc(CNC(=O)[C@@H]2C[C@@H](O)CN2C(=O)[C@@H](NC(=O)CCCCCCCCCC(=O)N2CCN(c3ccc(Nc4nc5cccc(-c6ccc(S(C)(=O)=O)cc6)n5n4)cc3)CC2)C(C)(C)C)cc1 [JA-081, 4-Hydroxy-1-{2-[11-(4-{4-[5-(4-methanesulfonyl-phenyl)-[1,2,4]triazolo[1,5-a]pyridin-2-ylamino]-phenyl}-piperazin-1-yl)-11-oxo-undecanoylamino]-3,3-dimethyl-butyryl}-pyrrolidine-2-carboxylic acid 4-(4-methyl-thiazol-5-yl)-benzylamide]
> 10	Cc1ncsc1-c1ccc(CNC(=O)[C@@H]2C[C@@H](O)CN2C(=O)[C@@H](NC(=O)CCCCCCCCC(=O)N2CCC(n3cc(-c4cnc5cccc(-c6cc(F)c(CN7CCOCC7)c(F)c6)c5n4)cn3)CC2)C(C)(C)C)cc1 [JA-042, (2S,4R)-1-[(2S)-2-[[10-[4-[4-[8-[3,5-Difluoro-4-(morpholinomethyl)phenyl]quinoxalin-2-yl]pyrazol-1-yl]-1-piperidyl]-10-oxo-decanoyl]amino]-3,3-dimethyl-butanoyl]-4-hydroxy-N-[[4-(4-methylthiazol-5-yl)phenyl]methyl]pyrrolidine-2-carboxamide]
0.287	Cc1cnc(Nc2ccc(N3CCN(C(=O)CCOCCOCCNc4ccc5c(c4)C(=O)N(C4CCC(=O)NC4=O)C5=O)CC3)cc2)nc1Nc1cccc(S(=O)(=O)NC(C)(C)C)c1 (stereo not shown) [JA-233, N-(tert-butyl)-3-((2-((4-(4-(3-(2-(2-((2-(2,6-dioxopiperidin-3-yl)-1,3-dioxoisoindolin-5-yl)amino)ethoxy)ethoxy)propanoyl)piperazin-1-yl)phenyl)amino)-5-methylpyrimidin-4-yl)amino)benzenesulfonamide]
> 10	Cc1ncsc1-c1ccc(CNC(=O)[C@@H]2C[C@@H](O)CN2C(=O)[C@@H](NC(=O)COCCNC(=O)CN2CCN(c3ccc(Nc4nc5cccc(-c6ccc(S(C)(=O)=O)cc6)n5n4)cc3)CC2)C(C)(C)C)cc1 [JA-132, (2S,4R)-1-((S)-3,3-Dimethyl-2-(2-(2-(2-(4-(4-((5-(4-(methylsulfonyl)phenyl)-[1,2,4]triazolo[1,5-a]pyridin-2-yl)amino)phenyl)piperazin-1-yl)acetamido)ethoxy)acetamido)butanoyl)-4-hydroxy-N-(4-(4-methylthiazol-5-yl)benzyl)pyrrolidine-2-carboxamide]
> 10	Cc1ncsc1-c1ccc(CNC(=O)[C@@H]2C[C@@H](O)CN2C(=O)[C@@H](NC(=O)CCOCCOCCOCCOCCC(=O)N2CCN(c3ccc(Nc4nc5cccc(-c6ccc(S(C)(=O)=O)cc6)n5n4)cc3)CC2)C(C)(C)C)cc1 [JA-063, (2S,4R)-1-((S)-2-(tert-Butyl)-19-(4-(4-((5-(4-(methylsulfonyl)phenyl)-[1,2,4]triazolo[1,5-a]pyridin-2-yl)amino)phenyl)piperazin-1-yl)-4,19-dioxo-7,10,13,16-tetraoxa-3-azanonadecanoyl)-4-hydroxy-N-(4-(4-methylthiazol-5-yl)benzyl)pyrrolidine-2-carboxamide]
> 10	Cc1cnc(Nc2ccc(N3CCN(C(=O)CCOCCOCCC(=O)N[C@H](C(=O)N4C[C@H](O)C[C@H]4C(=O)NCc4ccc(-c5scnc5C)cc4)C(C)(C)C)CC3)cc2)nc1Nc1cccc(S(=O)(=O)NC(C)(C)C)c1 [JA-033, (2S,4R)-1-((S)-2-(3-(2-(3-(4-(4-((4-((3-(N-(tert-Butyl)sulfamoyl)phenyl)amino)-5-methylpyrimidin-2-yl)amino)phenyl)piperazin-1-yl)-3-oxopropoxy)ethoxy)propanamido)-3,3-dimethylbutanoyl)-4-hydroxy-N-(4-(4-methylthiazol-5-yl)benzyl)pyrrolidine-2-carboxamide]
3.48	Cc1cnc(Nc2ccc(N3CCN(CC(=O)NCCNc4cccc5c4C(=O)N(C4CCC(=O)NC4=O)C5=O)CC3)cc2)nc1Nc1cccc(S(=O)(=O)NC(C)(C)C)c1 (stereo not shown) [JA-090, 2-(4-(4-((4-((3-(N-(tert-Butyl)sulfamoyl)phenyl)amino)-5-methylpyrimidin-2-yl)amino)phenyl)piperazin-1-yl)-N-(2-((2-(2,6-dioxopiperidin-3-yl)-1,3-dioxoisoindolin-4-yl)amino)ethyl)acetamide]
> 10	Cc1ncsc1-c1ccc(CNC(=O)[C@@H]2C[C@@H](O)CN2C(=O)[C@@H](NC(=O)CCCCCCCCCNC(=O)CN2CCN(c3ccc(Nc4nc5cccc(-c6ccc(S(C)(=O)=O)cc6)n5n4)cc3)CC2)C(C)(C)C)cc1 [JA-120, (2S,4R)-1-((S)-3,3-Dimethyl-2-(10-(2-(4-(4-((5-(4-(methylsulfonyl)phenyl)-[1,2,4]triazolo[1,5-a]pyridin-2-yl)amino)phenyl)piperazin-1-yl)acetamido)decanamido)butanoyl)-4-hydroxy-N-(4-(4-methylthiazol-5-yl)benzyl)pyrrolidine-2-carboxamide]
> 10	O=C(CN1CCC(n2cc(-c3cnc4cccc(-c5cc(F)c(CN6CCOCC6)c(F)c5)c4n3)cn2)CC1)NCCCCCCCNc1cccc2c1C(=O)N(C1CCC(=O)NC1=O)C2=O (stereo not shown) [JA-148, 2-(4-(4-(8-(3,5-Difluoro-4-(morpholinomethyl)phenyl)quinoxalin-2-yl)-1H-pyrazol-1-yl)piperidin-1-yl)-N-(7-((2-(2,6-dioxopiperidin-3-yl)-1,3-dioxoisoindolin-4-yl)amino)heptyl)acetamide]
3.7	Cc1cnc(Nc2ccc(N3CCN(CC(=O)NCCCC(=O)N[C@H](C(=O)N4C[C@H](O)C[C@H]4C(=O)NCc4ccc(-c5scnc5C)cc4)C(C)(C)C)CC3)cc2)nc1Nc1cccc(S(=O)(=O)NC(C)(C)C)c1 [JA-099, (2S,4R)-1-((S)-2-(4-(2-(4-(4-((4-((3-(N-(tert-Butyl)sulfamoyl)phenyl)amino)-5-methylpyrimidin-2-yl)amino)phenyl)piperazin-1-yl)acetamido)butanamido)-3,3-dimethylbutanoyl)-4-hydroxy-N-(4-(4-methylthiazol-5-yl)benzyl)pyrrolidine-2-carboxamide]
> 10	Cc1ncsc1-c1ccc(CNC(=O)[C@@H]2C[C@@H](O)CN2C(=O)[C@@H](NC(=O)CCOCCNC(=O)CN2CCC(n3cc(-c4cnc5cccc(-c6cc(F)c(CN7CCOCC7)c(F)c6)c5n4)cn3)CC2)C(C)(C)C)cc1 [JA-160, (2S,4R)-1-((S)-2-(3-(2-(2-(4-(4-(8-(3,5-Difluoro-4-(morpholinomethyl)phenyl)quinoxalin-2-yl)-1H-pyrazol-1-yl)piperidin-1-yl)acetamido)ethoxy)propanamido)-3,3-dimethylbutanoyl)-4-hydroxy-N-(4-(4-methylthiazol-5-yl)benzyl)pyrrolidine-2-carboxamide]
> 10	O=C(CN1CCC(n2cc(-c3cnc4cccc(-c5cc(F)c(CN6CCOCC6)c(F)c5)c4n3)cn2)CC1)NCCOCCOCCOCCOCCNc1ccc2c(c1)C(=O)N(C1CCC(=O)NC1=O)C2=O (stereo not shown) [JA-172, 2-(4-(4-(8-(3,5-Difluoro-4-(morpholinomethyl)phenyl)quinoxalin-2-yl)-1H-pyrazol-1-yl)piperidin-1-yl)-N-(14-((2-(2,6-dioxopiperidin-3-yl)-1,3-dioxoisoindolin-5-yl)amino)-3,6,9,12-tetraoxatetradecyl)acetamide]
> 10	CS(=O)(=O)c1ccc(-c2cccc3nc(Nc4ccc(N5CCN(CC(=O)NCCOCCOCCOCCOCCNc6cccc7c6C(=O)N(C6CCC(=O)NC6=O)C7=O)CC5)cc4)nn23)cc1 (stereo not shown) [JA-114, N-(14-((2-(2,6-Dioxopiperidin-3-yl)-1,3-dioxoisoindolin-4-yl)amino)-3,6,9,12-tetraoxatetradecyl)-2-(4-(4-((5-(4-(methylsulfonyl)phenyl)-[1,2,4]triazolo[1,5-a]pyridin-2-yl)amino)phenyl)piperazin-1-yl)acetamide]
> 10	Cc1ncsc1-c1ccc(CNC(=O)[C@@H]2C[C@@H](O)CN2C(=O)[C@@H](NC(=O)CCCCCCCNC(=O)CN2CCN(c3ccc(Nc4nc5cccc(-c6ccc(S(C)(=O)=O)cc6)n5n4)cc3)CC2)C(C)(C)C)cc1 [JA-124, (2S,4R)-1-((S)-3,3-Dimethyl-2-(8-(2-(4-(4-((5-(4-(methylsulfonyl)phenyl)-[1,2,4]triazolo[1,5-a]pyridin-2-yl)amino)phenyl)piperazin-1-yl)acetamido)octanamido)butanoyl)-4-hydroxy-N-(4-(4-methylthiazol-5-yl)benzyl)pyrrolidine-2-carboxamide]
0.0073	CS(=O)(=O)c1ccc(-c2cccc3nc(Nc4ccc(N5CCN(C(=O)CCCCCNc6ccc7c(c6)C(=O)N(C6CCC(=O)NC6=O)C7=O)CC5)cc4)nn23)cc1 (stereo not shown) [JA-198, 2-(2,6-dioxopiperidin-3-yl)-5-((6-(4-(4-((5-(4-(methylsulfonyl)phenyl)-[1,2,4]triazolo[1,5-a]pyridin-2-yl)amino)phenyl)piperazin-1-yl)-6-oxohexyl)amino)isoindoline-1,3-dione]
> 10	Cc1cnc(Nc2ccc(N3CCN(C(=O)COCCOCCOCC(=O)N[C@H](C(=O)N4C[C@H](O)C[C@H]4C(=O)NCc4ccc(-c5scnc5C)cc4)C(C)(C)C)CC3)cc2)nc1Nc1cccc(S(=O)(=O)NC(C)(C)C)c1 [JA-108, (2S,4R)-1-((S)-2-(tert-Butyl)-14-(4-(4-((4-((3-(N-(tert-butyl)sulfamoyl)phenyl)amino)-5-methylpyrimidin-2-yl)amino)phenyl)piperazin-1-yl)-4,14-dioxo-6,9,12-trioxa-3-azatetradecanoyl)-4-hydroxy-N-(4-(4-methylthiazol-5-yl)benzyl)pyrrolidine-2-carboxamide]
0.0744	Cc1cnc(Nc2ccc(N3CCN(CC(=O)NCCCCCCNc4cccc5c4C(=O)N(C4CCC(=O)NC4=O)C5=O)CC3)cc2)nc1Nc1cccc(S(=O)(=O)NC(C)(C)C)c1 (stereo not shown) [JA-094, 2-(4-(4-((4-((3-(N-(tert-butyl)sulfamoyl)phenyl)amino)-5-methylpyrimidin-2-yl)amino)phenyl)piperazin-1-yl)-N-(6-((2-(2,6-dioxopiperidin-3-yl)-1,3-dioxoisoindolin-4-yl)amino)hexyl)acetamide]
